# From ChEMBL document CHEMBL5244223, “l,8-Naphthalimide based DNA intercalators and anticancer agents. A systematic review from 2007 to 2017” (Eur J Med Chem, 2018)
# Legend:
# [1] = test system: Staphylococcus aureus; experiment: Antibacterial activity against Staphylococcus aureus MTCC 96 assessed as zone of inhibition at 50 ug/ml by well diffusion assay; format: functional; details: read-out: IZ
# [2] = test system: Staphylococcus epidermidis; experiment: Antibacterial activity against Staphylococcus epidermidis MTCC 435 assessed as zone of inhibition at 50 ug/ml by well diffusion assay; format: functional; details: read-out: IZ
# [3] = test system: Pseudomonas aeruginosa; experiment: Antibacterial activity against Pseudomonas aeruginosa MTCC 741 assessed as zone of inhibition at 50 ug/ml by well diffusion assay; format: functional; details: read-out: IZ
# [4] = test system: Escherichia coli; experiment: Antibacterial activity against Escherichia coli MTCC 443 assessed as zone of inhibition at 50 ug/ml by well diffusion assay; format: functional; details: read-out: IZ
# [5] = test system: Aspergillus niger; experiment: Antifungal activity against Aspergillus niger MTCC 282 assessed as zone of inhibition at 100 ug/ml by well diffusion assay; format: functional; details: read-out: IZ
# [6] = test system: Candida albicans; experiment: Antifungal activity against Candida albicans MTCC 227 assessed as zone of inhibition at 100 ug/ml by well diffusion assay; format: functional; details: read-out: IZ
# [7] = test system: Rhizopus arrhizus; experiment: Antifungal activity against Rhizopus oryzae MTCC 262 assessed as zone of inhibition at 100 ug/ml by well diffusion assay; format: functional; details: read-out: IZ
# [8] = test system: Saccharomyces cerevisiae; experiment: Antifungal activity against Saccharomyces cerevisiae MTCC 36 assessed as zone of inhibition at 100 ug/ml by well diffusion assay; format: functional; details: read-out: IZ
# [9] = test system: Bel-7402; experiment: Cytotoxicity against human Bel-7402 cells assessed as inhibition of cell growth incubated for 48 hrs by MTT assay; format: functional, cell-based; details: Bel-7402, 48 h
# [10] = Cytotoxicity against human QSG7701 cells assessed as inhibition of cell growth incubated for 48 hrs by MTT assay; format: toxicity, cell-based
# [11] = test system: HepG2; experiment: Antiproliferative activity against human HepG2 cells assessed as inhibition of cell proliferation incubated for 48 hrs by MTT assay; format: functional, cell-based; details: HepG2, 48 h
# [12] = test system: SMMC-7721; experiment: Antiproliferative activity against human SMMC-7721 cells assessed as inhibition of cell proliferation incubated for 48 hrs by MTT assay; format: functional, cell-based; details: SMMC-7721, 48 h
# [13] = test system: HCT-116; experiment: Antiproliferative activity against human HCT-116 cells assessed as inhibition of cell proliferation incubated for 48 hrs by MTT assay; format: functional, cell-based; details: HCT-116, 48 h
# [14] = test system: K562; experiment: Antiproliferative activity against human K562 cells assessed as inhibition of cell proliferation incubated for 48 hrs by MTT assay; format: functional, cell-based; details: K562, 48 h
# [15] = test system: MDA-MB-231; experiment: Antiproliferative activity against human MDA-MB-231 cells assessed as inhibition of cell proliferation incubated for 48 hrs by MTT assay; format: functional, cell-based; details: MDA-MB-231, 48 h
# [16] = Antiproliferative activity against human QSG7701 cells assessed as inhibition of cell proliferation incubated for 48 hrs by MTT assay; format: toxicity, cell-based
Structure (SMILES),zone of inhibition at 50 µg/mL [1],zone of inhibition at 50 µg/mL [2],zone of inhibition at 50 µg/mL [3],zone of inhibition at 50 µg/mL [4],zone of inhibition at 100 µg/mL [5],zone of inhibition at 100 µg/mL [6],zone of inhibition at 100 µg/mL [7],zone of inhibition at 100 µg/mL [8],IC50 [9],IC50 at 48 h [10],other results
CCC1=C(C(=O)Oc2ccccc2)C(CN2C(=O)c3cccc4cccc(c34)C2=O)NC(=O)N1 (centres undefined),15 mm,15 mm,12 mm,12 mm,12 mm,12 mm,12 mm,12 mm,,,
NCCCNCCCNCCCN1C(=O)c2cccc3cc(N)cc(c23)C1=O,,,,,,,,,1.06 µM,> 50 µM,
CN(C)CCN1C(=O)c2cccc3cc(NC(=O)NCCCN)cc(c23)C1=O,,,,,,,,,,,IC50 [11]: > 50 µM; IC50 [12]: > 50 µM; IC50 [13]: > 50 µM; IC50 [14]: > 50 µM; IC50 [15]: > 50 µM; IC50 at 48 h [16]: > 50 µM
CCCCNC(=O)Nc1cc2c3c(cccc3c1)C(=O)N(CCN(C)C)C2=O,,,,,,,,,,,IC50 [11]: > 50 µM; IC50 [12]: > 50 µM; IC50 [13]: > 50 µM; IC50 [14]: > 50 µM; IC50 [15]: > 50 µM; IC50 at 48 h [16]: > 50 µM
NCCCCNCCCCNCCCCN1C(=O)c2cccc3cc(N)cc(c23)C1=O,,,,,,,,,1.06 µM,> 50 µM,
CN(C)CCN1C(=O)c2cccc3cc(NC(=O)CNCCCNCCCNCCCN)cc(c23)C1=O,,,,,,,,,,,IC50 [11]: 6.42 µM; IC50 [12]: 6.42 µM; IC50 [13]: 6.42 µM; IC50 [14]: 6.42 µM; IC50 [15]: 6.42 µM; IC50 at 48 h [16]: 6.42 µM
NCCCCNCCCCNCCCN1C(=O)c2cccc3cccc(c23)C1=O,,,,,,,,,1.06 µM,> 50 µM,
COC(=O)C1=C(C)NC(=O)NC1CN1C(=O)c2cccc3cccc(c23)C1=O (centres undefined),15 mm,15 mm,12 mm,12 mm,12 mm,12 mm,12 mm,12 mm,,,
Clc1ccccc1C(c1ccccc1)(c1ccccc1)n1ccnc1 [CLOTRIMAZOLE],,,,,22 mm,22 mm,22 mm,22 mm,,,
NCCCNCCCCNCCCCN1C(=O)c2cccc3cccc(c23)C1=O,,,,,,,,,1.06 µM,> 50 µM,
CCCC1=C(C(=O)OC)C(CN2C(=O)c3cccc4cccc(c34)C2=O)NC(=O)N1 (centres undefined),15 mm,15 mm,12 mm,12 mm,12 mm,12 mm,12 mm,12 mm,,,
CN(C)CCN1C(=O)c2cccc3cc(NC(=O)CNCCCCNCCCCNCCCCN)cc(c23)C1=O,,,,,,,,,,,IC50 [11]: 6.42 µM; IC50 [12]: 6.42 µM; IC50 [13]: 6.42 µM; IC50 [14]: 6.42 µM; IC50 [15]: 6.42 µM; IC50 at 48 h [16]: 6.42 µM
NCCCCNCCCCNCCCCN1C(=O)c2cccc3cccc(c23)C1=O,,,,,,,,,1.06 µM,> 50 µM,
CCC1=C(C(=O)OC(F)(F)F)C(CN2C(=O)c3cccc4cccc(c34)C2=O)NC(=O)N1 (centres undefined),15 mm,15 mm,12 mm,12 mm,12 mm,12 mm,12 mm,12 mm,,,
NCCCCNCCCCNCCCCN1C(=O)c2cccc3cc([N+](=O)[O-])cc(c23)C1=O,,,,,,,,,1.06 µM,> 50 µM,
CCC1=C(C(=O)OC)C(CN2C(=O)c3cccc4cccc(c34)C2=O)NC(=O)N1 (centres undefined),15 mm,15 mm,12 mm,12 mm,12 mm,12 mm,12 mm,12 mm,,,
CCCC1=C(C(=O)OC)C(CN2C(=O)c3cccc4cccc(c34)C2=O)NC(=S)N1 (centres undefined),15 mm,15 mm,12 mm,12 mm,12 mm,12 mm,12 mm,12 mm,,,
CN(C)CCN1C(=O)c2cccc3cc(NC(=O)CNCCCN)cc(c23)C1=O,,,,,,,,,,,IC50 [11]: 6.42 µM; IC50 [12]: 6.42 µM; IC50 [13]: 6.42 µM; IC50 [14]: 6.42 µM; IC50 [15]: 6.42 µM; IC50 at 48 h [16]: 6.42 µM
